Tests used:
[1] = target: T1, human TLR7 (Homo sapiens, UniProt Q9NYK1); assay: TLR7 inhibition reporter assay (HEK-Blue cells, SEAP reporter, gardiquimod stimulation); type: cell-based; details: HEK-Blue cells overexpressing human TLR7, gardiquimod 7.5 μM
T1 construct: host or cells: HEK-Blue cells
T1 sequence (Q9NYK1 27-1049): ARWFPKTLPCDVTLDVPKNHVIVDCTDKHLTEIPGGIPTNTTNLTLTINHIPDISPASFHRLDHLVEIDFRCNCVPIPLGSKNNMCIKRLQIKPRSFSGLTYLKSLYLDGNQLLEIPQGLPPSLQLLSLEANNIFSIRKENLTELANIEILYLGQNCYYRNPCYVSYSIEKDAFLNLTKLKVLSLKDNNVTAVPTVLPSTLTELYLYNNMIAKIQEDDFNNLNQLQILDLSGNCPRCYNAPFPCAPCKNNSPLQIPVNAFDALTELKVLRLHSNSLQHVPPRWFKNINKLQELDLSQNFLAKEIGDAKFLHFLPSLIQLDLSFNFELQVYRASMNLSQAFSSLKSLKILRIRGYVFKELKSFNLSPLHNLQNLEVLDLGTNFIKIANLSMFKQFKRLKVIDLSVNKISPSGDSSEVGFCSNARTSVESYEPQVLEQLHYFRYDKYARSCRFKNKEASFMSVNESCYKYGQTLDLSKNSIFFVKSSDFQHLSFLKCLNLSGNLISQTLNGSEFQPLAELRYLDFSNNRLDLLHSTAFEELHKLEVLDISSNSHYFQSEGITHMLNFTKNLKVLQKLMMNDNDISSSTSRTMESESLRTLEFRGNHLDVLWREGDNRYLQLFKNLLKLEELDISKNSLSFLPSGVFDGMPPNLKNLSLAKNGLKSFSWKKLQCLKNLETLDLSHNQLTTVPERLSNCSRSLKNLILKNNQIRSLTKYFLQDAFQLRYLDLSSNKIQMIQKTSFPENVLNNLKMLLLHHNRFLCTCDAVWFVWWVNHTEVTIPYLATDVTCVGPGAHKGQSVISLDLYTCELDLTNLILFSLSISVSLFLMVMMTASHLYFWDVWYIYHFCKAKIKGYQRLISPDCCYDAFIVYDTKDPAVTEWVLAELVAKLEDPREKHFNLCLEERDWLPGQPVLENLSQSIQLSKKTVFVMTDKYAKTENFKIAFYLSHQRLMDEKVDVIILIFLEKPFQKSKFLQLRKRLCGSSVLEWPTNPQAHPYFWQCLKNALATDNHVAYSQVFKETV
Procedure, shortened: (§1)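 HEK-Blue reporter cells (15,000/well TLR7, 20,000 TLR8) exposed to compound over 0.05 nM–50 μM, agonist-stimulated (R848 for TLR8, gardiquimod for TLR7), 22 h at 37 °C, 5% CO2. SEAP read with HEK-Blue Detection; % inhibition relative to agonist-plus-DMSO and known-inhibitor controls.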

[2] = target: T2, human TLR8 (Homo sapiens, UniProt Q9NR97); assay: TLR8 inhibition reporter assay (HEK-Blue cells, SEAP reporter, R848 stimulation); type: cell-based; details: HEK-Blue cells overexpressing human TLR8, R848 15.9 μM
T2 construct: host or cells: HEK-Blue cells
T2 sequence (Q9NR97 27-1041): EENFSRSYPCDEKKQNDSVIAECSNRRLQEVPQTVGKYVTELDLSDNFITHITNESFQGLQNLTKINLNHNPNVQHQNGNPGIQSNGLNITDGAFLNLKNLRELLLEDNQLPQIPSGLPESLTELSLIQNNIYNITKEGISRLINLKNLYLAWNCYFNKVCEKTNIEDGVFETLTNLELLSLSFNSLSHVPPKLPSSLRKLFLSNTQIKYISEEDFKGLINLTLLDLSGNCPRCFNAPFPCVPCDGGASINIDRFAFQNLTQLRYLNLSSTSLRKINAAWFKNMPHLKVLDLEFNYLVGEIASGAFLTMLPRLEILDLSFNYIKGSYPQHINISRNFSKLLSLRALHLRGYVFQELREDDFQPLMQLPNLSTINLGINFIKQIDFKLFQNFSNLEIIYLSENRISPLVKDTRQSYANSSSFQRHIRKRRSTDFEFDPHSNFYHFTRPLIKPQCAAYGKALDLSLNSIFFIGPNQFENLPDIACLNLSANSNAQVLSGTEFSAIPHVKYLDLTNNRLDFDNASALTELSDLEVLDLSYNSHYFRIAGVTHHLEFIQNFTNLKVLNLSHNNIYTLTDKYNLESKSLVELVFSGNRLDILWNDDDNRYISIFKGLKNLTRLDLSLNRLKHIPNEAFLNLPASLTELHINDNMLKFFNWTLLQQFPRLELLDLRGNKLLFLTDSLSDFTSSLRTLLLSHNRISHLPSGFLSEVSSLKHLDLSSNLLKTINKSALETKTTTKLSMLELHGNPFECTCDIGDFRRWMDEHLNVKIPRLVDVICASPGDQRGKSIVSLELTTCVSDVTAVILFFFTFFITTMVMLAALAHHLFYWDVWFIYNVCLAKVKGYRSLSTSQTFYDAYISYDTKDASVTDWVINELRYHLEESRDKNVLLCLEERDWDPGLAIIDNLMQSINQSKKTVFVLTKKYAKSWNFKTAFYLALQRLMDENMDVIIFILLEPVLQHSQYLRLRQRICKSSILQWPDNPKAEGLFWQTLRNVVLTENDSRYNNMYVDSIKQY
Procedure, shortened: as §1

Row | IC50 [1] [nM] | IC50 [2] [nM] | SMILES
1 | 121 | 36 | CCc1c(-c2ccc(OC)c(OC)c2)[nH]c2ccc(C3CCN(C(=O)CNc4nccs4)CC3)cc12 [Example 177, 1-(4-(2-(3,4-dimethoxyphenyl)-3-ethyl-1H-indol-5-yl)piperidin-1-yl)-2-(thiazol-2-ylamino)ethanone]
2 | ≥ 50000 | 776 | CCc1c(-c2ccc(OC)c(OC)c2)[nH]c2ccc(C3CCN(CC(C)C(F)(F)F)CC3)cc12 (centres unmarked) [Example 180, 2-(3,4-dimethoxyphenyl)-3-ethyl-5-(1-(3,3,3-trifluoro-2-methylpropyl)piperidin-4-yl)-1H-indole]
3 | 52 | 66 | CCc1c(-c2ccc(OC)c(OC)c2)[nH]c2ccc(C3CCN(C(=O)CN(C)C)CC3)cc12 [Example 181, 1-(4-(2-(3,4-dimethoxyphenyl)-3-ethyl-1H-indol-5-yl)piperidin-1-yl)-2-(dimethylamino) ethanone]
4 | 533 | 838 | CCc1c(-c2ccc(OC)c(OC)c2)[nH]c2ccc(C3CCN(C(=O)c4ccncc4)CC3)cc12 [Example 183, (4-(2-(3,4-dimethoxyphenyl)-3-ethyl-1H-indol-5-yl)piperidin-1-yl)(pyridin-4-yl) methanone]
5 | 191 | 136 | CCc1c(-c2ccc(OC)c(OC)c2)[nH]c2ccc(C3CCN(C(=O)C4CCCNC4)CC3)cc12 (centres unmarked) [Example 184, (4-(2-(3,4-dimethoxyphenyl)-3-ethyl-1H-indol-5-yl)piperidin-1-yl)(piperidin-3-yl)methanone]
6 | 273 | 837 | CCc1c(-c2ccc(OC)c(OC)c2)[nH]c2ccc(C3CCN(C(C)=O)CC3)cc12 [Example 185, 1-(4-(2-(3,4-dimethoxyphenyl)-3-ethyl-1H-indol-5-yl)piperidin-1-yl)ethan-1-one]
7 | 96 | 132 | CCc1c(-c2ccc(OC)c(OC)c2)[nH]c2ccc(C3CCN(C(=O)C4CCNCC4)CC3)cc12 [Example 186, (4-(2-(3,4-dimethoxyphenyl)-3-ethyl-1H-indol-5-yl)piperidin-1-yl)(piperidin-4-yl) methanone]
8 | 167 | 162 | CCc1c(-c2ccc(OC)c(OC)c2)[nH]c2ccc(C3CCN(C(=O)C4(C)CCNCC4)CC3)cc12 [Example 187, (4-(2-(3,4-dimethoxyphenyl)-3-ethyl-1H-indol-5-yl)piperidin-1-yl)(4-methylpiperidin-4-yl)methanone]
9 | 70 | 213 | CCc1c(-c2ccc(OC)c(OC)c2)[nH]c2cc(C)c(C3CCN(CCNC)CC3)cc12 [Example 188, 2-(4-(2-(3,4-dimethoxyphenyl)-3-ethyl-6-methyl-1H-indol-5-yl)piperidin-1-yl)-N-methylethanamine-di-trifluoroacetic acid]
10 | 430 | 620 | CCc1c(-c2ccc(OC)c(OC)c2)[nH]c2c(F)cc(C3CCNCC3)cc12 [Example 189, 2-(3,4-dimethoxyphenyl)-3-ethyl-7-fluoro-5-(piperidin-4-yl)-1H-indole]
11 | 588 | 1760 | CCc1c(-c2ccc(OC)c(OC)c2)[nH]c2c(F)cc(C3CCN(C4CCN(CC(C)C)CC4)CC3)cc12 [Example 190, 2-(3,4-dimethoxyphenyl)-3-ethyl-7-fluoro-5-(1′-isobutyl-[1,4′-bipiperidin]-4-yl)-1H-indole]
12 | 1190 | 110 | CCc1c(-c2ccc(OC)c(OC)c2)[nH]c2c(F)cc(C3CCN(CCNC)CC3)cc12 [Example 191, 2-(4-(2-(3,4-dimethoxyphenyl)-3-ethyl-7-fluoro-1H-indol-5-yl)piperidin-1-yl)-N-methylethan-1-amine]
13 | 171 | 194 | CCc1c(-c2ccc(OC)c(OC)c2)[nH]c2cc(OC)c(C3CCN(C4CCN(C(C)C)CC4)CC3)cc12 [Example 192, 2-(3,4-dimethoxyphenyl)-3-ethyl-5-(1′-isopropyl-[1,4′-bipiperidin]-4-yl)-6-methoxy-1H-indole]

— US11180474B2 (BRISTOL-MYERS SQUIBB COMPANY, priority 2016, dated 2021)
